Consider six compounds from US20100048543A1, “PYRIMIDINE COMPOUNDS HAVING TIES (TEK) INHIBITORY ACTIVITY” (ASTRAZENECA AB, priority 2005, published 2010).

Test [1] addresses T1, Tie2 receptor tyrosine kinase (Homo sapiens, UniProt Q02763).
T1 construct: consist of only the intracellular portion C-terminal portion of the respective receptor, within which is found the kinase domain; made in house; host or cells: baculovirus/Sf21 insect cells (or alternative equivalent), used as cleared lysate
As to the kind of experiment: In vitro receptor tyrosine kinase inhibition assay, Test (a) (ELISA). The class given is biochemical. The following applies: recombinant human Tie2 kinase domain lysate, ATP 5 micromolar (or Km). On the procedure:
a. In vitro Receptor Tyrosine Kinase Inhibition Assay
To test for inhibition of Tie2 receptor tyrosine kinase, compounds are evaluated in a non-cell based protein kinase assay by their ability to inhibit the protein kinase enzyme phosphorylation of a tyrosine containing polypeptide substrate in an ELISA based microtitre plate assay. In this particular case, the assay was to determine the IC50, for three different recombinant human tyrosine kinases Tie2, KDR and Flt.
To facilitate production of the tyrosine kinases, recombinant receptor genes were produced using standard molecular biology cloning and mutagenesis techniques. These recombinant proteins fragments encoded within these genes consist of only the intracellular portion C-terminal portion of the respective receptor, within which is found the kinase domain. The recombinant genes encoding the kinase domain containing fragments were cloned and expressed in standard baculovirus/Sf21 system (or alternative equivalent).
Lysates were prepared from the host insect cells following protein expression by treatment with ice-cold lysis buffer (20 mM N-2-hydroxyethylpiperizine-N′-2-ethanesulphonic acid (HEPES) pH7.5, 150 mM NaCl, 10% glycerol, 1% Triton X-100, 1.5 mM MgCl2, 1 mM ethylene glycol-bis (β-aminoethyl ether) N′,N′,N′,N′-tetraacetic acid (EGTA), plus protease inhibitors and then cleared by centrifugation. Tie2, KDR and Flt1 lysates were stored in aliquots at −80° C.
Constitutive kinase activity of these recombinant proteins was determined by their ability to phosphorylate a synthetic peptide (made up of a random co-polymer of Glutamic Acid, Alanine and Tyrosine in the ratio of 6:3:1). Specifically, Nunc Maxisorb™ 96-well immunoplates were coated with 100 microlitres of synthetic peptide Sigma P3899 (1 mg/ml stock solution in PBS diluted 1:500 in PBS prior to plate coating) and incubated at 4° C. overnight. Plates were washed in 50 mM HEPES pH 7.4 at room temperature to remove any excess unbound synthetic peptide.
The immobilised phospho-peptide product of the reaction was detected by immunological methods. Firstly, plates were incubated for 4 hours at room temperature with murine monoclonal anti-phosphotyrosin-HRP (Horseradish Peroxidase) conjugated antibodies (4G10 from Upstate Biotechnology UBI 16-105). Following extensive washing with PBS-T, HRP activity in each well of the plate was measured colorimetrically using 22′-Azino-di-[3-ethylbenzthiazoline sulfonate (6)]diammonium salt crystals ABTS (Sigma P4922—prepared as per manufactures instructions) as a substrate incubated for 30-45 minutes to allow colour development, before 100 ul of 1M H2SO4 was added to stop the reaction.
Quantification of colour development and thus enzyme activity was achieved by the measurement of absorbance at 405 nm on a Molecular Devices ThermoMax microplate reader. Kinase inhibition for a given compound was expressed as an IC50 value. This was determined by calculation of the concentration of compound that was required to give 50% inhibition of phosphorylation in this assay. The range of phosphorylation was calculated from the positive (vehicle plus ATP) and negative (vehicle minus ATP) control values.
In general terms: In an ELISA, binding on a coated surface is turned into a signal by an enzyme label.

The target in test [2] is T2, Tie2 receptor (Homo sapiens, UniProt Q02763).
T2 construct: one can use natural cell lines or primary cells which are known to express the receptor of choice; endogenous in cells; host or cells: EA.hy926/B3 cells (HUVEC named as an alternative)
T2 sequence (Q02763 23-1124): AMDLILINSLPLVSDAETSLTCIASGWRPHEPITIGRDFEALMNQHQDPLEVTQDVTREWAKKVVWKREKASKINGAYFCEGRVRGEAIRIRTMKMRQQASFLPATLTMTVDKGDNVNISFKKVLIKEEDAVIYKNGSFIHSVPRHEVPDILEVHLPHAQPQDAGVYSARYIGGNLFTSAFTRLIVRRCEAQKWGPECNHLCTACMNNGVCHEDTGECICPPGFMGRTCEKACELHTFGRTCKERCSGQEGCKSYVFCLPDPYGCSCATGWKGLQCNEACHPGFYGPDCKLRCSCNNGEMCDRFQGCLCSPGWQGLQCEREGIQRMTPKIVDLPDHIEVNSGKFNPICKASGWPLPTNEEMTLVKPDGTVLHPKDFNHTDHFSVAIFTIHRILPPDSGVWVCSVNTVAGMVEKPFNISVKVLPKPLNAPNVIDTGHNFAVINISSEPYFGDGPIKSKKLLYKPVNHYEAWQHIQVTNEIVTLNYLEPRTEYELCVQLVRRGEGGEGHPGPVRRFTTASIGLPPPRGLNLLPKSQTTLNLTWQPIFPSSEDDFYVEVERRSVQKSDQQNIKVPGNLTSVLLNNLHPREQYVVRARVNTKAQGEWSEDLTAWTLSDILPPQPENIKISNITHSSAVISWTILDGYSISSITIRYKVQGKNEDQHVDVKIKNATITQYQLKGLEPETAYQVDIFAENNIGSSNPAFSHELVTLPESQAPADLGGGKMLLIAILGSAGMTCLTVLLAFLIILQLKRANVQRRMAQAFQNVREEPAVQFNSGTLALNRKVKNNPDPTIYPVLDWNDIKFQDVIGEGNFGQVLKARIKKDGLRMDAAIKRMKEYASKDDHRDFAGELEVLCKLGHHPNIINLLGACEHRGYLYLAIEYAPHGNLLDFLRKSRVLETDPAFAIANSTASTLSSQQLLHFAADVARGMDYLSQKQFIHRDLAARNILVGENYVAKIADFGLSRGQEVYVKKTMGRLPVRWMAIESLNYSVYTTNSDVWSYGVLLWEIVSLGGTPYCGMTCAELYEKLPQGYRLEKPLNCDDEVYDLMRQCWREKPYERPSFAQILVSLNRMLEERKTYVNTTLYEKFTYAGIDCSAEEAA
As to the kind of experiment: Cellular Tie2 autophosphorylation assay, Test (b). In kind it is cell-based. The settings on record: Ang1 ligand stimulated whole cells (e.g. EA.hy926/B3), immunoprecipitation/western blot; read-out: IC50 (μM) Test (b): Inhibition of autophosphorylation of Tie2 receptor tyrosine kinase. The source says:
b. Cellular Tie2 Autophosphorylation Assay
This assay is based on measuring the ability of compounds to inhibit autophosphorylation of the Tie2 receptor which normally leads to the production of “activated” receptor that in turn initiates the particular signal transduction pathways associated with the receptor function.
Autophosphorylation can be achieved by a number of means. It is known that expression of recombinant kinase domains in baculoviral systems can lead to the production of phosphorylated and activated receptor. It is also reported that over expression of receptors in recombinant cell lines can itself lead to receptor autophosphorylation in the absence of the ligand (Heldin C-H. 1995 Cell: 80, 213-223; Blume-J. P, Hunter T. 2001 Nature: 411, 355-65). Furthermore, there are numerous literature examples in which chimaeric receptors have been constructed. In these cases the natural, external cell surface domain of the receptor has been replaced with that of a domain which is known to be readily dimerised via the addition of the appropriate ligand (e.g. TrkA-Tie2/NGF ligand (Marron, M. B., et al., 2000 Journal of Biological Chemistry: 275:39741-39746) or C-fins-Tie-1/CSF-1 ligand (Kontos, C. D., et al., 2002 Molecular and Cellular Biology: 22, 1704-1713). Thus when the chimaeric receptor expressed in a host cell line and the respective ligand is added, this induces autophosphorylation of the chimeric receptor's kinase domain. This approach has the advantage of often allowing a known (and often easily obtained) ligand to be used instead of having to identify and isolate the natural ligand for each receptor of interest.
Naturally if the ligand is available one can use natural cell lines or primary cells which are known to express the receptor of choice and simply stimulate with ligand to achieve ligand induced phosphorylation. The ability of compounds to inhibit autophosphorylation of the Tie2 receptor, which is expressed for example in EA.hy926/B3 cells (supplied by J. McLean/B. Tuchi, Univ. of N. Carolina at Chapel Hill, CB-4100, 300 Bynum Hall, Chapel Hill, N.C. 27599-41000, USA) or primary HUVEC (human umbilical vein endothelial cells—available from various commercial sources), can measured by this assay.
Natural Ang1 ligand can be isolated using standard purification technology from either tumour cell supernatants or alternatively the Ang1 gene can be cloned and expressed recombinantly using stand molecular biology techniques and expression systems. In this case one can either attempt to produce the ligand either in its native state or as recombinant protein which for example may have been genetically engineered to contain additional of purification tags (eg. polyhistidine peptides, antibody Fc domains) to facilitate the process.
Using the ligand stimulation of either EA.hy926/B3 or HUVEC cellular Tie2 receptor as the example, a Ang1 ligand stimulated cellular receptor phosphorylation assay can be constructed which can be used to analyse to determine the potential of compounds to inhibit this process. For example EA.hy926/B3 cells were grown in the appropriate tissue culture media plus 10% foetal calf serum (FCS) for two days in 6 well plates starting with an initial seeding density of 5×10^5 cells/well. On the third day the cells were serum starved for a total of 2 hours by replacing the previous media with media containing only 1% FCS. After 1 hour 40 minutes of serum starvation the media was removed and replace with 1 ml of the test compound dilutions (compound dilutions made in serum starvation media yet keeping the DMSO concentration below 0.8%). After 1.5 hours of serum starvation orthovanidate was added to a final concentration of 0.1 mM for the final 10 minutes of serum starvation. […]
For orientation: Immunoblotting shows a protein as a band on a membrane.

T1 sequence (Q02763 770-1124 limits assumed): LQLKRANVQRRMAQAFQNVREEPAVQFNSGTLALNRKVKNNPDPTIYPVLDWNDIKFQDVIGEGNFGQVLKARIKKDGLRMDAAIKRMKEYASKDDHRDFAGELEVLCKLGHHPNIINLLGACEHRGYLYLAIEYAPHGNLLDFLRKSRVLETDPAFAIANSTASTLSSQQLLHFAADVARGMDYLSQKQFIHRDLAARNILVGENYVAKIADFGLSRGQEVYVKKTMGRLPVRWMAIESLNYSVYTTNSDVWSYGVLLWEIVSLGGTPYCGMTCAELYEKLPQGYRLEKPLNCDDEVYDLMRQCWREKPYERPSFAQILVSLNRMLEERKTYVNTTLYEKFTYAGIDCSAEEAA

For `Cc1ccc(CNC(=O)Nc2cccc(C#Cc3cnc(N)nc3)c2)o1` [Example 6, N-{3-[(2-aminopyrimidin-5-yl)ethynyl]phenyl}-N′-[(5-methyl-2-furyl)methyl]urea], the 50% inhibitory concentration (IC50) in test [1] was found to be 20 µM; in test [2], 1.7 µM.

Consider `Nc1ncc(C#Cc2cccc(NC(=O)NC(CCO)c3ccccc3)c2)cn1` (stereo not drawn) [Example 12, N-{3-[(2-aminopyrimidin-5-yl)ethynyl]phenyl}-N′-(3-hydroxy-1-phenylpropyl)urea], for which the concentration for half-maximal inhibition (IC50) in test [1] turned out to be 25 µM; in test [2], 1.3 µM.

For `Cc1ccc(CNC(=O)Nc2cccc(C#Cc3cnc(NCCCN4CCCCC4)nc3)c2)o1` [Example 14, N-[(5-methyl-2-furyl)methyl]-N′-[3-({2-[(3-piperidin-1-ylpropyl)amino]pyrimidin-5-yl}ethynyl)phenyl]urea], the IC50 in test [1] amounted to 20 µM; in test [2], 0.38 µM.

Take `Nc1ncnc(N)c1C#Cc1cccc(NC(=O)NCc2cccnc2)c1` [Example 45, N-{3-[(4,6-diaminopyrimidin-5-yl)ethynyl]phenyl}-N′-(pyridin-3-ylmethyl)urea]: the 50% inhibitory concentration (IC50) in test [1] worked out at 3.3 µM; in test [2], 0.2 µM.

With `Nc1ncnc(N)c1C#Cc1cccc(NC(=O)NCC2CCCO2)c1` (stereo not drawn) [Example 47, N-{3-[(4,6-diaminopyrimidin-5-yl)ethynyl]phenyl}-N′-(tetrahydrofuran-2-ylmethyl)urea], the IC50 in test [1] is 1.5 µM; in test [2] it was 1.9 µM.

With `Cc1conc1CNC(=O)Nc1cccc(C#Cc2c(N)ncnc2N)c1` [Example 50, N-{3-[(4,6-diaminopyrimidin-5-yl)ethynyl]phenyl}-N′-[(4-methylisoxazol-3-yl)methyl]urea], the IC50 in test [1] turned out to be 9 µM; in test [2], 3.6 µM.

What is called IC50 is the concentration needed to halve the response being measured.
